“Also recorded” adds a separate entry of the source.
Assays:
p53 [1] = assay: Western Blot p53 expression, UM-SCC-74B; type: cell-based, human; conditions: n ≥ 3
Method: (§1) Cells were irradiated using ^137Cs gamma-ray photons at a dose-rate of ~1 Gy/min (Best Theratronics Gammacell® 40Exactor, Springfield, USA).
(§2) Whole-cell lysates were prepared according to standard protocols. Protein concentrations were measured using a DeNovix DS-11 spectrophotometer (DeNovix Inc., Wilmington, DE, USA). Samples were separated on 4–12% Bis-Tris SDS gels and transferred to a nitrocellulose membrane (ThermoFisher Scientific, Uppsala, Sweden) by wet-transfer blotting. The membrane was blocked for 1 h in PBS with 5% BSA before incubation with primary antibodies targeting p53, caspase-3, NaK-ATPase and GLB1 (DO-1 (ab1101), ab13847, ab76020 and ab128993, AbCam, Cambridge, UK) and β-actin (A5441, Sigma Aldrich Sweden, Stockholm, Sweden) at 4°C overnight. After washing with PBS with 1% Tween-20, the membrane was incubated with respective and species-specific Horse Radish Peroxidase-labeled secondary antibody (ThermoFisher Scientific, Waltham, MA, USA) and stained with electro-chemiluminescent solution (Immobilon, Millipore, Bedford, USA).

Noxa = assay: Flow cytometry Noxa expression, UM-SCC-74B; type: cell-based, human; conditions: 20 μM PM2, 72 h
Method: as §1
Cells were collected and fixed in 70% ethanol at 6, 12, 24, 48, 72, and 96 h post-irradiation and stored at −20°C. For cell cycle analyses, 6, 12, 24, and 48 h samples were rehydrated and washed twice with PBS and stained with DAPI (Sigma Aldrich Sweden, Stockholm, Sweden) using 1 μg/ml for 30 min. 24, 48, 72, and 96 h samples were stained with caspase-3 and Noxa (ab13847 (1:500) and ab13654 (1:1,000), AbCam, Cambridge, UK) overnight at 4°C, followed by incubation with fluorescent labeled secondary antibodies for 90 min (ab 1:400) at room temperature. Analyses were performed using a BD LSR Fortessa flow cytometer (Becton Dickinson Biosciences, San Jose, USA). Data analyses for cleaved caspase-3 and Noxa were performed with BD FACSDiVa (Becton Dickinson Biosciences, San Jose, USA), while cell cycle analyses of exclusively viable cells were performed using FlowJo (Becton, Dickinson Biosciences, San Jose, USA). Coefficient of variation (CV) values, were below seven for all samples.

p53 [2] = assay: Western Blot p53 expression, HCT116; type: cell-based; conditions: n ≥ 3
Method: as §1, §2

GLB-1 [3] = assay: Western Blot GLB-1 expression, HCT116; type: cell-based; conditions: 2 Gy + 20 μM PM2, n ≥ 3
Method: as §1, §2

H314 = assay: XTT cell viability, H314; type: cell-based; conditions: n ≥ 4
Method: (§3) The human squamous cell carcinoma cell lines UM-SCC-74A and UM-SCC-74B were kindly provided by Professor TE Carey (University of Michigan, USA) and cultured in Dulbecco's Modified Eagle Medium (DMEM) with 10% fetal bovine serum, 1% L-glutamine, 1% antibiotics (100 IU penicillin and 100 μg/ml streptomycin) as well as 1% non-essential amino acids (all from Biochrom Kg, Berlin, Germany). UT-SCC-45 (kindly provided by Dr. R. Grenman, Turku University Central Hospital, Finland) was cultured in DMEM with the abovementioned additives. HCT116 and A431 were purchased from American Type Culture Collection (Manassas, VA, USA). […]
(§4) Five-hundred to ten thousands cells were seeded in flat-bottomed 96-well plates and incubated for 48 h prior to irradiation with 2Gy. […] Plates were incubated for up to 6 h at 37° and absorbance was measured by using a BioMark Microplate Reader (Bio-Rad Laboratories AB, Solna, Sweden).
(§5) GraphPad Prism version 6.07 (GraphPad Software, San Diego, USA) was used for data processing and analysis. p-values were determined using unpaired student's t-test for comparison between two groups or one-way ANOVA followed by Tukey's multiple comparisons test, with p < 0.05 (^*), p < 0.01 (^**), p < 0.001 (^***), and p < 0.0001 (^****). […]

p53^−/− tumors = conditions: mice, PM2 combined with radiotherapy; cited from earlier work
cleaved caspase-3 [4] = assay: Western Blot cleaved caspase-3 expression, HCT116; type: cell-based
Method: as §1, §2

cleaved caspase-3 [5] = assay: Western Blot cleaved caspase-3 expression, UM-SCC-74B; type: cell-based, human
Method: as §1, §2

GLB-1 [6] = assay: Western Blot GLB-1 expression, UM-SCC-74B; type: cell-based, human; conditions: 2 Gy + 20 μM PM2, 72 h, n ≥ 3
Method: as §1, §2

UT-SCC-45 = assay: XTT cell viability, UT-SCC-45; type: cell-based; conditions: n ≥ 4
Method: as §3, §4, §5

[7] = 20 μM PM2-treated samples, n ≥ 3

Question: With `CC(=O)N[C@H](C(=O)N[C@@H](CO)C(=O)N[C@@H](Cc1ccccc1)C(=O)N[C@]1(C)CCCCCCC=CCCC[C@@](C)(C(N)=O)NC(=O)[C@H](CC(C)C)NC(=O)[C@H](CC(C)C)NC(=O)[C@H](C)NC(=O)[C@H](Cc2c[nH]c3ccccc23)NC(=O)[C@H](Cc2ccc(O)cc2)NC(=O)[C@H](CCC(=O)O)NC1=O)[C@@H](C)O` [PM2] as the molecule, how does the p53 expression (p53 [1]; 20 μM PM2, 24 h) read?
Answer: increased expression of p53

Question: And the “p53 expression, combination versus PM2 alone” value (p53 [1]; 2 Gy + 20 μM PM2, 24 h)?
Answer: significant increase; also recorded: further increased wt p53 levels

Question: And the “increase in wt p53 levels following combination therapy” value (p53 [1]; 2 Gy + 20 μM PM2, 24 h, normalized to controls)?
Answer: ~5 fold

Question: What about the “Noxa expression” value (Noxa) of the same molecule?
Answer: distinct increases

Question: What about the p53 expression (p53 [2]; 20 μM PM2, 24 h) of the same molecule?
Answer: increased expression of p53

Question: And the “p53 expression, combination versus PM2 alone” value (p53 [2]; 2 Gy + 20 μM PM2, 24 h)?
Answer: significant increase; also recorded: further increased wt p53 levels

Question: And the “GLB-1 expression versus irradiated and control, combination” value (GLB-1 [3])?
Answer: less pronounced and failed to reach significance

Question: What about the PM2 effect (H314; 0–20 μM PM2, 0 Gy, two p53 mutations, HPV negative) of the same molecule?
Answer: did not affect and No

Question: What about the “Significant effect of combination” value (H314; PM2 with 2 Gy EBRT) of the same molecule?
Answer: No

Question: What about the “effects on p53^−/− tumors” value (p53^−/− tumors) of the same molecule?
Answer: negligible

Question: What about the “increase in cleaved caspase-3 levels” value (cleaved caspase-3 [4]; 20 μM PM2, 96 h (representative blots), normalized to controls, n ≥ 3) of the same molecule?
Answer: three-fold

Question: What about the “cleaved caspase-3 expression” value (cleaved caspase-3 [4]; [7]) of the same molecule?
Answer: increase in expression

Question: And the “cleaved caspase-3 expression, combination” value (cleaved caspase-3 [4]; 2 Gy + 20 μM PM2, n ≥ 3)?
Answer: predominant

Question: And the “increase in cleaved caspase-3 levels” value (cleaved caspase-3 [5]; 20 μM PM2, 72 h, normalized to controls, n ≥ 3)?
Answer: Four-fold

Question: What about the “cleaved caspase-3 expression” value (cleaved caspase-3 [5]; [7]) of the same molecule?
Answer: increase in expression

Question: What about the “cleaved caspase-3 expression, combination” value (cleaved caspase-3 [5]; 2 Gy + 20 μM PM2, n ≥ 3) of the same molecule?
Answer: predominant

Question: What about the “GLB-1 expression, combination versus irradiated” value (GLB-1 [6]) of the same molecule?
Answer: significant increase

Question: What about the PM2 effect (UT-SCC-45; 0–20 μM PM2, 0 Gy, wild-type p53 (exon 4–8), HPV positive) of the same molecule?
Answer: unresponsive and No response and No

Question: What about the “Significant effect of combination” value (UT-SCC-45; PM2 with 2 Gy EBRT) of the same molecule?
Answer: unresponsive and No response and No

— article PMC6764291 (Frontiers in Oncology, 2019)
